Results taken from patent US20240114943A1, “TASTE-IMPROVING COMPOSITIONS AND USES THEREOF” (AMAI PROTEINS LTD., priority 2020, published 2024).
Positions count from the first letter of the chain named.

Experiments:
[1] = Sensory expert panel time-intensity evaluation (sweetness intensity over time); type: in vivo, human
Protocol: The samples were evaluated by a panel of (˜15) prescreened, highly-sensitive, trained and calibrated expert tasters: The parameters quantified included Sweetness profile over time (Sweetness intensity with time after intake), Linger (Area under the sweetness intensity vs. time curve (AUC) from 60 to 150 or to 300 seconds), Linger time (Delta time from initial- to zero sweetness), Ratio of the Intensity at 60 seconds to the maximal intensity, Linger T50: Time to reach 50% of the maximal sweetness, Linger T10: Time to reach 10% of the maximal sweetness. The qualitative similarity of the taste to that of sugar was also evaluated, to describe attributes other than time-intensity profile.
Dilute citrate buffer was prepared in mineral water. […]
All micro-patched SP (MP-SP) were evaluated for sweetness intensity over time. The sensory panelists for the evaluation were screened for sensitivity for small differences in sweetness intensity and other basic tastes (saltiness, sourness, and bitterness), as well as sensory memory. These screening tests were performed according to ISO standards (IS 8586). The sensory expert panel was professionally trained and continuously assessed as to reproducibility and capability to differentiate between standard samples.
Sensory Method—Time Intensity (Measuring Sweetness Intensity Over Time): • 1. The products were tasted by an expert panel. • 2. Panelists were calibrated first with sugar solutions on a scale of 0-100 (magnitude estimation), while 0=not sweet at all. Calibration solutions used were 4% sucrose (defined as 50 sweetness) and 8% (defined as 100 sweetness grade). • 3. After calibration, the tasters preformed time-intensity evaluation for each sample according to the following stages: • a. After giving a signal, all tasters put the sample in their mouth, rolled it in their oral cavity for 2 seconds, and then swallowed. • b. After swallowing, the guide measured times, and at each time point, the taster was asked to grade the currently sensed sweetness intensity on the same scale (0-100) until the taste has disappeared. • c. The time periods examined were: 1, 2, 5, 7, 10, 15, 30, 45, 60, 90, 120, 150, 180, 210, 240, 270, and 300 seconds. • 4. Each panelist tasted a total of 6 products: SP standalone and four ratios of EGCG+SP tasted in varying orders. Sucrose solution (8Bx) was always tasted at the end. • 5. All the tested products were served using code numbers. • 6. Before and between samples, the tasters were requested to rinse their mouth with mineral water, eat an unsalted cracker and a cucumber, and drink water again. • 7. 11-15 tasters participated in these tests.

[2] = Meta-analysis of sensory panel meetings: four measures of lingering; type: in vivo, human; conditions: summary of Example 4
Protocol: The meta-analysis was based on 44 sensory panel meetings and 55 MP agents. Statistical analysis was conducted. Four measures of lingering were defined: • AUC—the area under the time-intensity curve from 60 seconds to 300 seconds. • I60/max—the ratio between the intensity recorded at 60 seconds and the maximum intensity recorded. • T50—the time in seconds at which intensity recorded was 50% of the maximal intensity recorded • T10—the time in seconds at which intensity recorded was 10% of the maximal intensity recorded
Each graph refers to a single parameter. The graphs show means and standard errors for the MP agents that show significant improvement compared to the control (DM09 alone). The standard errors are calculated according to all the data in the Meta analysis (including data that are not shown in the graph).
The mean for the protein without MP agents is colored black.

CC1(C)[C@@H](O[C@H]2O[C@H](C(=O)O)[C@@H](O)[C@H](O)[C@H]2O[C@@H]2O[C@H](C(=O)O)[C@@H](O)[C@H](O)[C@H]2O)CC[C@]2(C)[C@H]3C(=O)C=C4[C@@H]5C[C@@](C)(C(=O)O)CC[C@]5(C)CC[C@@]4(C)[C@]3(C)CC[C@@H]12.N [Mono Ammonium Glycyrrhizinate, monoammonium glycyrrhizinate, reference compound]
Sweetness profile over time (sweetness-intensity-vs.-time curve, lingering effect) ([1]; DM09 0.02 mg/ml, 8 Bx sugar equivalence level, vs DM09 alone): decreasing the lingering effect

OC[C@H]1O[C@@](CO)(O[C@H]2O[C@H](CO)[C@@H](O)[C@H](O)[C@H]2O)[C@@H](O)[C@@H]1O [sucrose, reference compound]
Typical linger of sugar ([1]; in vivo): ~60 s

epigallocatechin-3-gallate [EGCG, reference compound]
Sweetness profile over time (sweetness intensity) ([1]; EGCG with MNEI 0.08 mg/ml, 8 Bx, vs MNEI alone and sucrose, FIG. 1): significantly improved the sweetness profile of SP | Sweetness profile of DM09 (lingering effect) [2]: decreasing the lingering effect

B1: DM09: designer monellin, SEQ ID NO: 3; the sweet protein (SP) of Example 5 (protein)
chain: GNWEIIDIGPFTQNLGKFAVDEANKIGQYGRLTFNKVIRPCMKKTIYENEGFREIKGYEYQLYVRASDKLFRADISEDYKTRGRKLLRFNGPVPPP
Linger time (Delta time (in sec) from initial to 0 sweetness intensity) ([1]; DM09 0.02 mg/ml, 8 Bx sugar equivalence level, vs DM09 alone, P<0.05): significantly higher than the delta time of DM09:lactisole:tannic acid:ammonium Glycyrrhizinate | Linger time (Delta time (in sec) from initial to 0 sweetness intensity) ([1]; DM09 0.02 mg/ml, 8 Bx sugar equivalence level, vs DM09 alone, P<0.05, listed as DM09 only): significantly higher than the delta time of Quillija:DM09 (26:1) | Linger (sweetness-intensity-vs.-time curve) ([1]; sweet protein with gymnemic acids and/or maltodextrin, FIG. 15): longest linger time

B2: MNEI: single chain Monellin (MNEI) reference protein, SEQ ID NO: 28 (protein)
chain: B1 chain with N2E, A23E, R65Y
Linger (AUC of the sweetness-intensity vs. time, 60-150 seconds) ([1]; MNEI, 8 Bx, P<0.05, FIG. 2): significantly higher than the AUC of EGCG:MNEI (60:1)
